Patent publication US12186283B2, “Bismuth-thiol compositions and methods of use” (Microbion Corporation, priority 2018, dated 2025)
Values after ≈ are worked out from the molar mass of the structure shown.

How the values were obtained:
[1] = tested on: vancomycin-intermediate Staphylococcus aureus (VISA); assay: Broth microdilution MIC (Example 12)
S. aureus ATCC 29213 [2] = settings: S. aureus ATCC 29213, QC organism; cited from earlier work
S. aureus ATCC 29213 [3] = assay: Broth microdilution MIC, ATCC QC organism (Example 12); assay type: cell-based, Staphylococcus aureus; settings: S. aureus ATCC 29213, QC organism
Protocol: The in vitro activity of BisEDT and two additional bismuth-thiol investigational agents (MB-2B and MB-6) was determined for isolates of Escherichia coli, Klebsiella pneumoniae, Pseudomonas aeruginosa and Acinetobacter baumannii characterized for extended-spectrum β-lactamases (ESBL) and/or carbapenem resistance. In addition, vancomycin-intermediate Staphylococcus aureus (VISA) were evaluated. The majority of the isolates tested in the current study were multidrug-resistant (MDR) as defined by resistance to at least three different antibiotic classes. Susceptibility to the investigational compounds and relevant comparators was determined by broth microdilution conducted in accordance with guidelines from the Clinical and Laboratory Standards Institute (CLSI; 2,3).

CCC[C@@H]1C[C@@H](C(=O)N[C@@H]([C@H]2O[C@H](SC)[C@H](O)[C@@H](O)[C@H]2O)[C@H](C)Cl)N(C)C1 [CLI]
MIC ([1]; Staphylococcus aureus NRS 1 (hVISA)): >8 µg/mL
MIC ([1]; Staphylococcus aureus NRS 2): >8 µg/mL
MIC ([1]; Staphylococcus aureus NRS 3): >8 µg/mL
MIC ([1]; Staphylococcus aureus NRS 4): >8 µg/mL
MIC ([1]; Staphylococcus aureus NRS 13): 0.06 µg/mL (≈ 0.141 µM)
MIC ([1]; Staphylococcus aureus NRS 18): >8 µg/mL
MIC ([1]; Staphylococcus aureus NRS 22): >8 µg/mL
MIC ([1]; Staphylococcus aureus NRS 24 (hVISA)): >8 µg/mL
MIC ([1]; Staphylococcus aureus NRS 27): >8 µg/mL
MIC, QC range (S. aureus ATCC 29213 [2]): (0.06-0.25) μg/mL
MIC (S. aureus ATCC 29213 [3]): 0.25 µg/mL (≈ 0.588 µM)
